“And” between values parts separate entries of the source, which are not always exact repeats. Equal values may be shown once.
Columns and labels:
[1] = Plasma protein binding by equilibrium dialysis, rat plasma; assay type: in vitro ADME, SD rats
Protocol: The plasma protein binding (PPB) and blood plasma ratio (BPR) are crucial parameters influencing the drug distribution and elimination in plasma. The PPB profile of 25a was evaluated by equilibrium dialysis, a classic method to assess the interactions of small molecules with proteins. The PPB of 25a was tested at 50, 500, and 2500 ng/mL (Table 7). […] When considering the allometric scaling of PK parameters, the species difference of protein binding between humans and rats should be considered.
The plasma protein binding (PPB) ratio of 25a was assessed via equilibrium dialysis in SD rats and human plasma. Four hundred microliters of plasma containing 50, 500, or 2500 ng/mL 25a were loaded into the dialysis bags (plasma side), and the bags were placed into tubes containing 4 mL of the dialysis buffer (buffer side). The tubes were then rotated at approximately 100 rpm in a humidified incubator with 5% CO2 at 37 ± 1 °C for 5 h.
After the 5 h dialysis, aliquots of 50 μL samples were taken from both the buffer and the plasma sides. An equal volume of the opposite blank matrix (buffer or plasma) was added to each sample to reach a final volume of 100 μL with a volume ratio of plasma to dialysis buffer at 1:1 (v/v). All samples were further processed by adding 600 μL of stop solution (containing 10 ng/mL IS) to precipitate protein for LC–MS/MS analysis. The PPB ratio (%) was calculated by PPB% = 100% × (1 − Conc.buffer side/Conc.plasma side).

mice = system: mice; set-up: method as in PMID 34601246; conditions: orally administered; cited from earlier work
[2] = Excretion experiment in rats (urine, feces); assay type: in vivo, SD rats; conditions: single oral dose 100 mg/kg
Protocol: The cumulative excretion ratios of unchanged 25a in the urine, feces, and bile of rats after a single oral dose at 100 mg/kg were 0.14% ± 0.05%, 3.16% ± 0.96%, and 0.018% ± 0.006%, respectively (Figure 6 and Tables S5–S7). […] Further phenotyping and metabolite identification studies should be conducted to elucidate the major elimination forms of 25a in the future.
Four SD rats were adapted in metabolic cages for 3 days in advance and then administrated with 25a at 100 mg/kg orally. Feces and urine were collected and weighed at 0–6 h, 6–12 h, […], 24–36 h, 36–48 h, 48–60 h, and 60–72 h after administration. Parallelly, four SD rats received bile duct cannulation and were given a single dose of 25a at 100 mg/kg orally. Bile was collected and weighed at 0–2 h, 0–4 h, 0–6 h, 0–8 h, 0–10 h, 0–12 h, 0–24 h, 0–36 h, and 0–48 h after administration. All samples were stored at −80 °C until analysis.

UT-B = system: UT-B; set-up: method as in PMID 34601246; conditions: rat; read-out: inhibitory effect on UT-B; cited from earlier work
[3] = Blood plasma ratio, human blood; assay type: in vitro ADME; conditions: for Blood Plasma Ratio: human
Protocol: The BPR of 25a in rats and humans was assessed. […] In addition, a significant species difference between rats and humans was observed (p < 0.05, Student’s t-test, n = 3).
The blood plasma ratio of 25a was investigated as previously reported. Briefly, fresh whole blood was collected into collection tubes containing K2–EDTA as an anticoagulant from SD rats and healthy volunteers. Blood spiked with 50, 500, and 2500 ng/mL 25a was incubated in the incubator with 5% CO2 at 37 ± 1 °C for 1 h. Some of the incubated samples were processed as blood samples; the remaining incubated samples were centrifuged to generate plasma samples. The concentration of 25a in samples was determined using the validated LC–MS/MS method.

Compound: CC(=O)Nc1ccc(NC(=O)c2ccc(C(C)=O)o2)cc1 [Compound 25a, N-(4-acetamidophenyl)-5-acetylfuran-2-carboxamide]
- fraction unbound at 5 h, 50 ng/mL ([1]; SD, rat plasma, 50 ng/mL): 0.368
- fraction unbound at 5 h, 500 ng/mL ([1]; SD, rat plasma, 500 ng/mL): 0.386
- fraction unbound at 5 h, 2500 ng/mL ([1]; SD, rat plasma, 2500 ng/mL): 0.355
- fraction unbound at 5 h ([1]; Sprague-Dawley, rat plasma, 50, 500, 2500 ng/mL, read-out: mean plasma protein binding (PPB) (converted)): ~0.4
- Na+, K+, and Cl− levels in the blood (mice): without disturbing
- urine output vs vehicle control (mice): three times higher urine output than vehicle control
- total cumulative excretion fractions of unchanged 25a in urine, feces, and bile [2]: less than 5%
- Accumulated Amount in feces ([2]; 0-6 h): 0.248 ± 0.056 mg
- Accumulated Amount in urine ([2]; 0-6 h): 0.0129 ± 0.0059 mg
- Concentration in feces ([2]; 0-6 h): 6547.5 ± 1407.8 ng/mL
- Concentration in urine ([2]; 0-6 h): 1865.0 ± 576.4 ng/mL
- cumulative excretion ratio of unchanged 25a in feces ([2]; 100 mg/kg): 3.16% and 3.16% ± 0.96%
- Accumulated Amount in feces ([2]; 6-12 h): 0.565 ± 0.130 mg
- Accumulated Amount in urine ([2]; 6-12 h): 0.0221 ± 0.0046 mg
- Concentration in feces ([2]; 6-12 h): 9237.5 ± 2337.8 ng/mL
- Concentration in urine ([2]; 6-12 h): 1696.3 ± 1,244.3 ng/mL
- Accumulated Amount in feces ([2]; 12-24 h): 0.798 ± 0.309 mg
- Accumulated Amount in urine ([2]; 12-24 h): 0.0305 ± 0.0066 mg
- Concentration in feces ([2]; 12-24 h): 6053.3 ± 4545.2 ng/mL
- Concentration in urine ([2]; 12-24 h): 869.3 ± 442.0 ng/mL
- Accumulated Amount in feces ([2]; 24-36 h): 0.802 ± 0.310 mg
- Accumulated Amount in urine ([2]; 24-36 h): 0.0317 ± 0.0077 mg
- Concentration in feces ([2]; 24-36 h): 188.2 ± 121.9 ng/mL
- Concentration in urine ([2]; 24-36 h): 132.4 ± 108.1 ng/mL
- Accumulated Amount in feces ([2]; 36-48 h): 0.802 ± 0.310 mg
- Accumulated Amount in urine ([2]; 36-48 h): 0.0327 ± 0.0085 mg
- Concentration in feces ([2]; 36-48 h): 7.0 ± 8.8 ng/mL
- Concentration in urine ([2]; 36-48 h): 104.4 ± 95.7 ng/mL
- Accumulated Amount in feces ([2]; 48-60 h): 0.802 ± 0.310 mg
- Accumulated Amount in urine ([2]; 48-60 h): 0.0332 ± 0.0089 mg
- Concentration in feces ([2]; 48-60 h): 2.1 ± 3.1 ng/mL
- Concentration in urine ([2]; 48-60 h): 49.6 ± 31.9 ng/mL
- Accumulated Amount in feces ([2]; 60-72 h): 0.802 ± 0.310 mg
- Accumulated Amount in urine ([2]; 60-72 h): 0.0337 ± 0.0090 mg
- Concentration in feces ([2]; 60-72 h): 3.8 ± 3.8 ng/mL
- Concentration in urine ([2]; 60-72 h): 32.5 ± 11.2 ng/mL

— article PMC9027532, “Preclinical Pharmacokinetic Studies of a Novel Diuretic Inhibiting Urea Transporters” (Molecules, 2022)
